Among the data in ChEMBL document CHEMBL5465560, “Selectivity Literature for EUbOPEN Chemogenomic Library” (2024) are % of control and % of inhibition values, retold here.

The target of test [1] is Serine/threonine-protein kinase MRCK gamma (Homo sapiens) (UniProt Q6DT37). Particulars: at 10 µM.
Test [2] has as its target T1, Insulin-like growth factor 1 receptor (Homo sapiens, UniProt P08069). The test can be described thus: Selectivity interaction (KinomeScan (DiscoverX)) EUB0001619a IGF1R. Particulars: at 1 µM.
For test [3], the target named is T2, Serine/threonine-protein kinase 36 (Homo sapiens) (UniProt Q9NRP7).
T2 sequence (whole entry): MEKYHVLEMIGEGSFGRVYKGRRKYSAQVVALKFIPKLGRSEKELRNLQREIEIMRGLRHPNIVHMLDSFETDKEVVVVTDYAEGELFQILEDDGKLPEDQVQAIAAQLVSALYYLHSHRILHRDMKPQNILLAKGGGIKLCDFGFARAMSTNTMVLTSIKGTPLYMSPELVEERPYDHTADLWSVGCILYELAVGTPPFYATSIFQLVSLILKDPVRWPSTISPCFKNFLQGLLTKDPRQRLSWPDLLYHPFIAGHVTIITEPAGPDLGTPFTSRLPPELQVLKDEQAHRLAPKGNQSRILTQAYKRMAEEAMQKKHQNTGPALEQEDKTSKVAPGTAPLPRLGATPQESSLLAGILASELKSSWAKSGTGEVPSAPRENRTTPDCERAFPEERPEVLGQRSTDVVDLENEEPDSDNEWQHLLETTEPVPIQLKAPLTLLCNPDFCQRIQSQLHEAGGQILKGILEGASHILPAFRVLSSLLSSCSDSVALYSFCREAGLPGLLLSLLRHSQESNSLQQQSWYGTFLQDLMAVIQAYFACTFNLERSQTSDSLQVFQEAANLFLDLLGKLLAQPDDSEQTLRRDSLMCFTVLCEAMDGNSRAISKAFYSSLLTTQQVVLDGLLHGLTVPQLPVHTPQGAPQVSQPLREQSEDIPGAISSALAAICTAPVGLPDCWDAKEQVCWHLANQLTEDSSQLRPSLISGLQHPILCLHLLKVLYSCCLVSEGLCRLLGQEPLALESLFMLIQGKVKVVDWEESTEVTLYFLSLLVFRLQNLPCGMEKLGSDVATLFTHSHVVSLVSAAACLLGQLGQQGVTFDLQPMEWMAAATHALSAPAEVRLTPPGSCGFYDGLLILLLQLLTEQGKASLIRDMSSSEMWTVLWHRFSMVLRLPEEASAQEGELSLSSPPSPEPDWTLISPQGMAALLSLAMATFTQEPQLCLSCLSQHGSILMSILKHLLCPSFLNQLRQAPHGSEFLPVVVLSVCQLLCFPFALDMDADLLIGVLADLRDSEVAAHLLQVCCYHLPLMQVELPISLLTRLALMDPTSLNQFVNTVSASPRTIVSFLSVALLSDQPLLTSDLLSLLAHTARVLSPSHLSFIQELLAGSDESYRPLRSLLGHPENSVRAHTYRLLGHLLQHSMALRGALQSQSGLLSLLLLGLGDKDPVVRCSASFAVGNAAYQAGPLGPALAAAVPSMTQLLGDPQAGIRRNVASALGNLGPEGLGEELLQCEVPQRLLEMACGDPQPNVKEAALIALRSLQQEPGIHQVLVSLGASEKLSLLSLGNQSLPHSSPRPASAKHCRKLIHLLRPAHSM
Description: Selectivity interaction (KinomeScan (DiscoverX)) EUB0001619a STK36. Particulars: at 1 µM.

For test [4], the target named is T3, Kinase suppressor of Ras 2 (Homo sapiens) (UniProt Q6VAB6).
T3 sequence (whole entry): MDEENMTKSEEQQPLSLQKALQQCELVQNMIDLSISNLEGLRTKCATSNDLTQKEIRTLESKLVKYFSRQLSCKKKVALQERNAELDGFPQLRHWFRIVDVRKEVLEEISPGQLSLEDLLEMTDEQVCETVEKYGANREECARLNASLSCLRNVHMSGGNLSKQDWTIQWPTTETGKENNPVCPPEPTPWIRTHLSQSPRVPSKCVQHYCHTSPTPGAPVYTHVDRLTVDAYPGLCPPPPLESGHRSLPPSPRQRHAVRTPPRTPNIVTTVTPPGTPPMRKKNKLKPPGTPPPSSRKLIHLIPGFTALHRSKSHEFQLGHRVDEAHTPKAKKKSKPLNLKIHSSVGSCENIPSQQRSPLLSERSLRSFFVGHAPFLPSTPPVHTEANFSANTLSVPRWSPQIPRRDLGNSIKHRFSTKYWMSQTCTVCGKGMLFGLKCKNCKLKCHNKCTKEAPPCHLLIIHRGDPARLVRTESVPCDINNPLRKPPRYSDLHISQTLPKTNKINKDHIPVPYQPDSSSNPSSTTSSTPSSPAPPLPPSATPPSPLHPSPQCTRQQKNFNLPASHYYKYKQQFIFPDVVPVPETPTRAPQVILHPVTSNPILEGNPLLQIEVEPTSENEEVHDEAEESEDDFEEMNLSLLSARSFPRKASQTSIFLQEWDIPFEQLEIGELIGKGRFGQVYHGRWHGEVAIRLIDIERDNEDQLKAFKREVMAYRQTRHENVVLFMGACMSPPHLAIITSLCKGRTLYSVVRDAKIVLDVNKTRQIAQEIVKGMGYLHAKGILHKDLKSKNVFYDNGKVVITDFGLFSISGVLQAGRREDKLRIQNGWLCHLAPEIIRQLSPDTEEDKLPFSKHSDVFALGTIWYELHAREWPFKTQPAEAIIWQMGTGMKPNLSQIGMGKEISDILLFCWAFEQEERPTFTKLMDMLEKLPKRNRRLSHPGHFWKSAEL
Description: Selectivity interaction (ActivX KiNativ screen (kinase selectivity in THP-1 cell lysates)) EUB0000639a KSR2. The format is subcellular. Particulars: lysate.

For test [5], the target named is T1, Insulin-like growth factor 1 receptor. Description: Selectivity interaction (Upstate Kinase Profiler service (Millipore)) EUB0000056c IGF1R. Particulars: at 1 µM.

T1 sequence (P08069 31-736 limits assumed): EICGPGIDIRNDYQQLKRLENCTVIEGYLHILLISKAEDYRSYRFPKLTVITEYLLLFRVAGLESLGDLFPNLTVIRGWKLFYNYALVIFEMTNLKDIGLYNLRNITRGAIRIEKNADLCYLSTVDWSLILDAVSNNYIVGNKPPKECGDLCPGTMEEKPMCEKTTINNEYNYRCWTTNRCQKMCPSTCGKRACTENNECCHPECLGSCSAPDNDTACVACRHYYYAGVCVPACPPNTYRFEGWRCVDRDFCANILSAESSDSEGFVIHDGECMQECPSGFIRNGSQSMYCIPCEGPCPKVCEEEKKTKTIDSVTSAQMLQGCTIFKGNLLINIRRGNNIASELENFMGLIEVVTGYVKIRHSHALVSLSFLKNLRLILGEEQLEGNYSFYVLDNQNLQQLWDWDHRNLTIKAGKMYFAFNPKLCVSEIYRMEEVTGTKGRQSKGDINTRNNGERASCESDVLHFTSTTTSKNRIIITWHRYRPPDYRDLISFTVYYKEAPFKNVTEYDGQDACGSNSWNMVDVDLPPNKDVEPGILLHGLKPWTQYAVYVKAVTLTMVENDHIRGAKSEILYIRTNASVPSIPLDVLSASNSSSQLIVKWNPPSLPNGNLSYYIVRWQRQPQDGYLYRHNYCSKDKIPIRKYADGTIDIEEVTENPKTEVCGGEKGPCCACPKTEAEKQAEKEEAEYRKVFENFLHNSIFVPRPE
T1 sequence (P08069 741-1367 limits assumed): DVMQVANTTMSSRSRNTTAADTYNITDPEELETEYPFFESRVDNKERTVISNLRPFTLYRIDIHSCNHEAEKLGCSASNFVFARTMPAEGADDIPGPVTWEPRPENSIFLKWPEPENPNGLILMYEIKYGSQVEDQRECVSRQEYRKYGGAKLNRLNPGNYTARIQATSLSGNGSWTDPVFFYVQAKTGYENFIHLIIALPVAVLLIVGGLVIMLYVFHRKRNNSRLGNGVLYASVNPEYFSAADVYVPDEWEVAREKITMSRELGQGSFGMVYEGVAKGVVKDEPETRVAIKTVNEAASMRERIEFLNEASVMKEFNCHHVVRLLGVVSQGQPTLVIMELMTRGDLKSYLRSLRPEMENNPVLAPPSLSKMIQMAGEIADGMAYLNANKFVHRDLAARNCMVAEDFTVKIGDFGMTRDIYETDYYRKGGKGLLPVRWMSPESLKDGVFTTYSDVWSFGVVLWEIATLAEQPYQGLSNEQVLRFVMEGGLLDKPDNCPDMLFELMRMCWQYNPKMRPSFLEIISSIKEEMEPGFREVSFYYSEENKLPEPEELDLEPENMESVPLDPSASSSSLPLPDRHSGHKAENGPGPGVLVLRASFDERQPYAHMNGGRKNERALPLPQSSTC
Chain of Serine/threonine-protein kinase MRCK gamma (Homo sapiens) (Q6DT37 whole entry): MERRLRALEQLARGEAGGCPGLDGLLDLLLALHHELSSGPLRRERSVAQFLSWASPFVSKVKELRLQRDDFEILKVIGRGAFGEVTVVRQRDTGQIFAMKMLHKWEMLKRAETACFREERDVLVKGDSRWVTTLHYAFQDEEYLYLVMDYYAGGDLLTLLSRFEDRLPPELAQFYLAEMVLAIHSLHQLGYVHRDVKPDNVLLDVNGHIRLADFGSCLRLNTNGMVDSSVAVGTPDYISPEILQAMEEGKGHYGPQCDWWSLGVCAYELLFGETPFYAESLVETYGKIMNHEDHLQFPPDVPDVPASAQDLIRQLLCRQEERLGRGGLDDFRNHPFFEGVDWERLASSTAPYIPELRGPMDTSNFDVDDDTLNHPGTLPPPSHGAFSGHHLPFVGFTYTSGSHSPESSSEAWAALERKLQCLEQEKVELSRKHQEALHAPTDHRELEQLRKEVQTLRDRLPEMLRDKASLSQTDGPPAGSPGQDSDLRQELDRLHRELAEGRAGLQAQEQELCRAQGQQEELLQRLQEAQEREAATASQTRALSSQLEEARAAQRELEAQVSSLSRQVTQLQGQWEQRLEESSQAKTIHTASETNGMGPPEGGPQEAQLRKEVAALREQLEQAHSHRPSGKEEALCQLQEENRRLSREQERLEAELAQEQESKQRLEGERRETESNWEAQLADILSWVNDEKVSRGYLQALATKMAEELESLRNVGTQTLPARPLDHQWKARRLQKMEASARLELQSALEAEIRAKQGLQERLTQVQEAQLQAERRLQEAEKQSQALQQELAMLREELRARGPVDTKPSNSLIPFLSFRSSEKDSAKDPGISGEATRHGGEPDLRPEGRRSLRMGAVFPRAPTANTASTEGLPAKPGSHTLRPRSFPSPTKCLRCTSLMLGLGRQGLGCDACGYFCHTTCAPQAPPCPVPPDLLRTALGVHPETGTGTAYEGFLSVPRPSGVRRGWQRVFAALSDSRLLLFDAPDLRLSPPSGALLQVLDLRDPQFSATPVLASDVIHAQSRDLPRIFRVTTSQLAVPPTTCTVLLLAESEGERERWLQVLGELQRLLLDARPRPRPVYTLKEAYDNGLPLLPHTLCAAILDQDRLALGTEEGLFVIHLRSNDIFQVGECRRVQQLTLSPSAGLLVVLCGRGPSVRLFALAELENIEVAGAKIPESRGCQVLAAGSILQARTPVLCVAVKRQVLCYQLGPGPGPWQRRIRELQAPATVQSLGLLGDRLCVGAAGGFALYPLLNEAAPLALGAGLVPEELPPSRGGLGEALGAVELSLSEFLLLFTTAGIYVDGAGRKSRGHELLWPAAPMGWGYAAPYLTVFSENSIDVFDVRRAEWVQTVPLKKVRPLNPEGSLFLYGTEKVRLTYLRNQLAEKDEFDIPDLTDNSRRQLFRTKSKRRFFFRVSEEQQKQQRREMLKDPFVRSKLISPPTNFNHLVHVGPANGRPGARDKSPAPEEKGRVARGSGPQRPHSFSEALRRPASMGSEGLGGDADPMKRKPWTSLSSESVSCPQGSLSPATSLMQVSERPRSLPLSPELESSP

In test [1], `Cc1cc([C@@H](C)Nc2ccccc2C(=O)O)c2nc(N3CCOCC3)cc(=O)n2c1` [AZD-6482] registered a % of control of 100%.
For `N#Cc1cccc(-c2c[nH]c3ncnc(N4CCOCC4)c23)c1`, the % of control was 87% in test [2] and 100% in test [3].
Take `CC[C@@H]1[C@H](F)C(=O)N[C@@H]1COc1nccc2cc(C(N)=O)c(OC)cc12` [ZIMLOVISERTIB]: the % of inhibition in test [4] (at 0.01 µM) is 2.4%; in test [4] (at 0.2 µM), -8.6%; in test [4] (at 1 µM) it was -32.8%; in test [4] (at 5 µM) it was -57.9%.
For the compound `Cc1ccc(-c2ccc3c(ccc4sc5c(c43)NC[C@@H](C)NC5=O)n2)cn1`, the % of inhibition in test [5] was 0%.
